One assay relates to Agelas conifera. The assay can be described thus: Distribution in Carribean Agelas conifera was determined and expressed as % dry weight. Format: functional.
A further assay concerns agelas longissima. In words: Distribution in Carribean Agelas longissima was determined and expressed as % dry weight. The assay is classed as functional.
A further assay relates to Agelas clathrodes. In words: Distribution in Carribean Agelas clathrodes was determined and expressed as % dry weight. Format: functional.
For assay [1], the species on record is Cavia porcellus. The assay can be described thus: Apparent affinity towards histamine receptor was determined and expressed as pD2.
Another assay concerns Agelas dispar. The assay can be described thus: Distribution in Carribean Agelas dispar was determined and expressed as % dry weight. Format: functional.
For assay [2], the species on record is Cavia porcellus. The assay can be described thus: Apparent affinity towards histamine receptor was determined and expressed as pD2; IA = Inactive.

Activity calls are given as the source filed them. The rule behind the calls is not given here.

With `NC1=N/C(=C\C(O)CNC(=O)c2cc(Br)c(Br)[nH]2)C(=O)N1` (stereo not given), the Dry weight with Agelas conifera was determined as 0.8%; in the assay with agelas longissima, 1.1%; in the assay on Agelas clathrodes, 3.2%; with Agelas dispar, 3.5%. Also, in the assay filed under Cavia porcellus [1], the pD2 came out at 4.48.
The like results for `NC1=N/C(=C\CCNC(=O)c2cc(Br)c(Br)[nH]2)C(=O)N1` were, in that order, 0.8%, 1.1%, 3.2%, 3.5% and 5.52.
On the same counts, the results for `Nc1nc([C@H]2[C@H](CNC(=O)c3cc(Br)c[nH]3)[C@@H](CNC(=O)c3cc(Br)c[nH]3)[C@@H]2c2c[nH]c(N)n2)c[nH]1` are 8.8%, 2.5%, 15.1%, 15.5% and 4.24.
As for `Nc1ncc(/C=C/CNC(=O)c2cc(Br)c(Br)[nH]2)[nH]1`, the Dry weight amounted to 2.1% with Agelas conifera, 4.1% with agelas longissima, 2.1% in the assay with Agelas clathrodes and 4.2% in the assay with Agelas dispar. In the assay filed under Cavia porcellus [1], the pD2 worked out at 4.02.
Regarding `NC1=N/C(=C\C(O)CNC(=O)c2cc(Br)c[nH]2)C(=O)N1` (stereo not given), the Dry weight with Agelas conifera came out at 3.5%; with agelas longissima it was 3.3%; with Agelas clathrodes, 0.5%; in the assay on Agelas dispar, 0.2%. Further, the pD2 in the assay filed under Cavia porcellus [1] is 4.34.
For the compound `NC1=N/C(=C\CCNC(=O)c2cc(Br)c[nH]2)C(=O)N1`, the Dry weight in the assay on Agelas conifera amounted to 3.5%; in the assay with agelas longissima it was 3.3%; in the assay with Agelas clathrodes, 0.5%; with Agelas dispar it was 0.2%. Also, the pD2 in the assay filed under Cavia porcellus [1] is 5.33.
Take `C[N+]1=CNC[C@]1(C)CC(NC(=O)c1cc(Br)c[nH]1)C(=O)[O-]` (stereo not given in full): the Dry weight came out at 0% with Agelas conifera, 0% in the assay on agelas longissima, 7.2% in the assay on Agelas clathrodes and 0% in the assay with Agelas dispar. In the assay filed under Cavia porcellus [2], the pD2 entry was “inactive”.

The values are drawn from ChEMBL document CHEMBL1150555, “Anti-histaminic activity of bromopyrrole alkaloids isolated from Caribbean Agelas sponges” (Bioorg Med Chem Lett, 1997).
